As a reminder, the pIC50 is −log10 of the IC50, conventionally taken in molar units.

In this experiment the target is T1, human B1 (Homo sapiens, UniProt P46663).
T1 construct: host or cells: CHO-K1
T1 sequence (P46663 1-353): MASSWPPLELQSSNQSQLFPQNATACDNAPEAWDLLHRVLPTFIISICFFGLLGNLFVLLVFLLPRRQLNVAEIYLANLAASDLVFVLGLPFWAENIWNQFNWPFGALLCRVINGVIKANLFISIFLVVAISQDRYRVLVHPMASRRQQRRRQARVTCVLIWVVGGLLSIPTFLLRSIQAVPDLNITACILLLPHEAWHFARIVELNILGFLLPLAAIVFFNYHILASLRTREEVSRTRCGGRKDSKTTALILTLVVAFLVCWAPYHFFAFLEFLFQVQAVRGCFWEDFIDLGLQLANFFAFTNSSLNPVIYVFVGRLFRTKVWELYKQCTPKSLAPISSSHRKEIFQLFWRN
Put plainly: Calcium flux assay for Bradykinin B1 antagonist, CHO-K1 cell line expressing human B1. In kind it is cell-based. The following applies: CHO-K1 cells expressing human B1, agonist Lys-(Des-Arg)-Bradykinin, read-out: Potency (IC50 value against human B1). The gist of the method:
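CHO-K1 cells expressing human B1, loaded with 5 μM Fluo-4AM (2 h, 37° C) in HEPES buffer pH 7.4 with probenecid and 0.1% BSA, were preincubated 30 min at 25° C with compound (8 concentrations, triplicate, 1% DMSO) before B1 agonist addition. Ca2+ fluorescence monitored at 538 nm; background-normalized integrated values plotted against log antagonist concentration.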
Background: A change in cytosolic calcium serves as a functional read-out for many receptors and channels.

SMILES strings stand for the structures. pIC50: −log10 of the molar value. Where a name gives a salt, the structure may show the parent alone.

As for `COc1cc(C)c(S(=O)(=O)N(C)Cc2nc(C(=O)N(C)Cc3ccc(CN4CCCC(O)C4)cc3)co2)c(C)c1` (stereo not drawn) [Ex 179, N-{4-[(3-Hydroxypiperidin-1-yl)methyl]benzyl}-2-({[(4-methoxy-2,6-dimethylphenyl)sulfonyl](methyl)amino}methyl)-N-methyl-1,3-oxazole-4-carboxamide], the pIC50 was over 8.00. Next, `COc1cc(C)c(S(=O)(=O)N(Cc2nc(C(=O)N(C)Cc3ccc(CN4CCCC(O)C4)cc3)co2)C2CC2)c(C)c1` (stereo not drawn) [Ex 180, 2-({Cyclopropyl[(4-methoxy-2,6-dimethylphenyl)sulfonyl]amino}methyl)-N-{4-[(3-hydroxypiperidin-1-yl)methyl]benzyl}-N-methyl-1,3-oxazole-4-carboxamide]: over 8.00; `COc1cc(C)c(S(=O)(=O)N(Cc2nc(C(=O)N(C)Cc3ccc(CN4CCC(O)CC4)cc3)co2)C2CC2)c(C)c1` [Ex 181, 2-({Cyclopropyl[(4-methoxy-2,6-dimethylphenyl)sulfonyl]amino}methyl)-N-{4-[(4-hydroxypiperidin-1-yl)methyl]benzyl}-N-methyl-1,3-oxazole-4-carboxamide]: over 8.00.

For the compound `COc1cc(C)c(S(=O)(=O)N(Cc2nc(C(=O)N(C)Cc3ccc(CN4CCC(OC)C4)cc3)co2)C2CC2)c(C)c1` (stereo not drawn) [Ex 182, 2-({Cyclopropyl[(4-methoxy-2,6-dimethylphenyl)sulfonyl]amino}methyl)-N-{4-[(3-methoxypyrrolidin-1-yl)methyl]benzyl}-N-methyl-1,3-oxazole-4-carboxamide], the negative logarithm of the IC50 (pIC50) is over 8.00. On to `COc1cc(C)c(S(=O)(=O)N(Cc2nc(C(=O)N(C)Cc3ccc(CN4CCC(OC)CC4)cc3)co2)C2CC2)c(C)c1` [Ex 183, 2-({Cyclopropyl[(4-methoxy-2,6-dimethylphenyl)sulfonyl]amino}methyl)-N-{4-[(4-methoxypiperidin-1-yl)methyl]benzyl}-N-methyl-1,3-oxazole-4-carboxamide], for which the negative-log IC50 (pIC50) was over 8.00. As to `COc1cc(C)c(S(=O)(=O)N(Cc2nc(C(=O)N(C)Cc3ccc(CN4CCCC(OC)C4)cc3)co2)C2CC2)c(C)c1` (stereo not drawn) [Ex 184, 2-({Cyclopropyl[(4-methoxy-2,6-dimethylphenyl)sulfonyl]amino}methyl)-N-{4-[(3-methoxypiperidin-1-yl)methyl]benzyl}-N-methyl-1,3-oxazole-4-carboxamide], the pIC50 was over 8.00.

With `COc1cc(C)c(S(=O)(=O)N(Cc2nc(C(=O)N(C)Cc3ccc(CN4CCC(NC(C)=O)C4)cc3)co2)C2CC2)c(C)c1` (stereo not drawn) [Ex 185, N-(4-{[3-(Acetylamino)pyrrolidin-1-yl]methyl}benzyl)-2-({cyclopropyl[(4-methoxy-2,6-dimethylphenyl)sulfonyl]amino}methyl)-N-methyl-1,3-oxazole-4-carboxamide], the negative logarithm of the IC50 (pIC50) is over 8.00. Turning to `COc1cc(C)c(S(=O)(=O)N(Cc2nc(C(=O)N(C)Cc3ccc(CN4CCC(C(=O)N(C)C)C4)cc3)co2)C2CC2)c(C)c1` (stereo not drawn) [Ex 186, 2-({Cyclopropyl[(4-methoxy-2,6-dimethylphenyl)sulfonyl]amino}methyl)-N-(4-{[3-(dimethylcarbamoyl)pyrrolidin-1-yl]methyl}benzyl)-N-methyl-1,3-oxazole-4-carboxamide], the negative logarithm of the IC50 (pIC50) is over 8.00. As to `COc1cc(C)c(S(=O)(=O)N(Cc2nc(C(=O)N(C)Cc3ccc(CN4CC(OC)C4)cc3)co2)C2CC2)c(C)c1` [Ex 187, 2-({Cyclopropyl[(4-methoxy-2,6-dimethylphenyl)sulfonyl]amino}methyl)-N-{4-[(3-methoxyazetidin-1-yl)methyl]benzyl}-N-methyl-1,3-oxazole-4-carboxamide], the pIC50 is over 8.00. In the case of `COc1cc(C)c(S(=O)(=O)N(Cc2nc(C(=O)N(C)Cc3ccc(CN4CC(O)C4)cc3)co2)C2CC2)c(C)c1` [Ex 188, 2-({Cyclopropyl[(4-methoxy-2,6-dimethylphenyl)sulfonyl]amino}methyl)-N-{4-[(3-hydroxyazetidin-1-yl)methyl]benzyl}-N-methyl-1,3-oxazole-4-carboxamide], the negative logarithm of the IC50 (pIC50) is 7.00 to 8.00. Turning to `COc1cc(C)c(S(=O)(=O)N(Cc2nc(C(=O)N(C)Cc3ccc(CN4CC(O)C(O)C4)cc3)co2)C2CC2)c(C)c1` (stereo not drawn) [Ex 189, 2-({Cyclopropyl[(4-methoxy-2,6-dimethylphenyl)sulfonyl]amino}methyl)-N-{4-[(3,4-dihydroxypyrrolidin-1-yl)methyl]benzyl}-N-methyl-1,3-oxazole-4-carboxamide], the pIC50 was over 8.00. Then `COc1cc(C)c(S(=O)(=O)N(Cc2nc(C(=O)N(C)Cc3ccc(CN4CCC(N(C)C)C4)cc3)co2)C2CC2)c(C)c1` (stereo not drawn) [Ex 190, 2-({Cyclopropyl[(4-methoxy-2,6-dimethylphenyl)sulfonyl]amino}methyl)-N-(4-{[3-(dimethylamino)pyrrolidin-1-yl]methyl}benzyl)-N-methyl-1,3-oxazole-4-carboxamide], with over 8.00.

For the compound `COc1cc(C)c(S(=O)(=O)N(Cc2nc(C(=O)N3CCN(CC4CCN(C)CC4)CC3)co2)C2CC2)c(C)c1` [Ex 191, N-Cyclopropyl-4-methoxy-2,6-dimethyl-N-{[4-({4-[(1-methylpiperidin-4-yl)methyl]piperazin-1-yl}carbonyl)-1,3-oxazol-2-yl]methyl}benzenesulfonamide trifluoroacetate trifluoroacetate], the pIC50 is over 8.00. Turning to `COc1cc(C)c(S(=O)(=O)N(Cc2nc(C(=O)N3CCN(CC4CCCN(C)C4)CC3)co2)C2CC2)c(C)c1` (stereo not drawn) [Ex 192, N-Cyclopropyl-4-methoxy-2,6-dimethyl-N-{[4-({4-[(1-methylpiperidin-3-yl)methyl]piperazin-1-yl}carbonyl)-1,3-oxazol-2-yl]methyl}benzenesulfonamide trifluoroacetate], the pIC50 was over 8.00.

`COc1cc(C)c(S(=O)(=O)N(Cc2nc(C(=O)N3CCC(CCN4CCCC4)CC3)co2)C2CC2)c(C)c1` [Ex 193, N-Cyclopropyl-4-methoxy-2,6-dimethyl-N-[(4-{[4-(2-pyrrolidin-1-ylethyl)piperidin-1-yl]carbonyl}-1,3-oxazol-2-yl)methyl]benzenesulfonamide trifluoroacetate]: the pIC50 was over 8.00. Take `COc1cc(C)c(S(=O)(=O)N(Cc2nc(C(=O)N3CCN(CCN4CCCCC4)CC3)co2)C2CC2)c(C)c1` [Ex 194, N-Cyclopropyl-4-methoxy-2,6-dimethyl-N-[(4-{[4-(2-piperidin-1-ylethyl)piperazin-1-yl]carbonyl}-1,3-oxazol-2-yl)methyl]benzenesulfonamide trifluoroacetate]: the pIC50 was over 8.00. For `COc1cc(C)c(S(=O)(=O)N(Cc2nc(C(=O)N3CCN(CCN4CCCC4)CC3)co2)C2CC2)c(C)c1` [Ex 195, N-Cyclopropyl-4-methoxy-2,6-dimethyl-N-[(4-{[4-(2-pyrrolidin-1-ylethyl)piperazin-1-yl]carbonyl}-1,3-oxazol-2-yl)methyl]benzenesulfonamide trifluoroacetate], the negative logarithm of the IC50 (pIC50) was over 8.00. For `COc1cc(C)c(S(=O)(=O)N(Cc2nc(C(=O)N3CCN(CCCN(C)C)CC3)co2)C2CC2)c(C)c1` [Ex 196, N-Cyclopropyl-N-{[4-({4-[3-(dimethylamino)propyl]piperazin-1-yl}carbonyl)-1,3-oxazol-2-yl]methyl}-4-methoxy-2,6-dimethylbenzenesulfonamide trifluoroacetate], the pIC50 is over 8.00.

For the origin of these results see patent publication US8623859B2, “Bradykinin B1 antagonists” (Evotec AG, priority 2008, dated 2014).
